According to US9309248B2, “Azaindolines” (Hoffmann-La Roche Inc., priority 2012, dated 2016):

Assays:
[1] = biological target: T1, BIR2 domain of XIAP (Homo sapiens, UniProt P98170, C202A/C213G); assay: TR-FRET assay for BIR2 (inhibition of binding of XIAP BIR2 domain to SMAC-derived Peptide A); settings: 6x Histidine-tagged BIR2 domain (amino acids 124-240 of XIAP) 10 nM, Peptide A 20 nM
T1 construct: 6× Histidine-tagged BIR2 domain, corresponding to amino acids 124-240 of XIAP
Method in brief: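 Inhibition of binding of the XIAP BIR2 domain (C202A/C213G) to biotinylated SMAC-derived Peptide A was measured. TR-FRET signal was read after 1 h at room temperature.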

[2] = biological target: T2, BIR3 domain of XIAP (Homo sapiens, UniProt P98170); assay: TR-FRET assay for BIR3 (inhibition of binding of XIAP BIR3 domain to SMAC-derived Peptide A); settings: 6x Histidine-tagged BIR3 domain (amino acids 241-356 of XIAP) 10 nM, Peptide A 20 nM
T2 construct: BIR3 domain, corresponding to amino acids 241-356 of XIAP
T2 sequence (P98170 with tags, fused parts or gaps): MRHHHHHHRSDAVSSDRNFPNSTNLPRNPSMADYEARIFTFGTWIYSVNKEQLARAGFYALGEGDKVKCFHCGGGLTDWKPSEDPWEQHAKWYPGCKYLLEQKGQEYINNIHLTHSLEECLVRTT
Method in brief: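 His6-tagged XIAP BIR3 (aa 241-356, 10 nM) was mixed with 20 nM biotinylated SMAC-derived peptide in 50 mM Tris-Cl pH 7.5, 100 mM NaCl, 1 mM DTT, 0.1 mg/mL BSA and incubated 45 min at 37 °C. Eu-streptavidin (1.5 nM) and APC anti-His (15 nM) were added, with TR-FRET read 1 h later at RT. IC50 came from % inhibition over 10 serial concentrations.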

T1 sequence (P98170 with tags, fused parts or gaps C202A/C213G): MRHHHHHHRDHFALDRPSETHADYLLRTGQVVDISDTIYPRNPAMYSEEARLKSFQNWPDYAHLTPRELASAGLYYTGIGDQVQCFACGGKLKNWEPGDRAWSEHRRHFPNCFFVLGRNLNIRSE

Compound | IC50 [1] | IC50 [2]
CN[C@@H](C)C(=O)N[C@H](C(=O)N1c2ncccc2C[C@@H]1C(=O)Nc1ccccc1)C1CCCCC1 [Example 79, (R)-1-[(S)-2-Cyclohexyl-2-((S)-2-methylamino-propionylamino)-acetyl]-2,3-dihydro-1H-pyrrolo[2,3-b]pyridine-2-carboxylic acid phenylamide] | > 54800 nM | > 54.8 µM
CC[C@H](NC)C(=O)N[C@H](C(=O)N1c2ncccc2C[C@@H]1C(=O)Nc1ccccc1)C1CCCCC1 [Example 81, (R)-1-[(S)-2-Cyclohexyl-2-((S)-2-methylamino-butyrylamino)-acetyl]-2,3-dihydro-1H-pyrrolo[2,3-b]pyridine-2-carboxylic acid phenylamide] | 10400 nM | > 54.8 µM
CCN[C@@H](C)C(=O)N[C@H](C(=O)N1c2ncccc2C[C@H]1C(=O)Nc1ccccc1)C(C)C [Example 87, (S)-1-[(S)-2-((S)-2-Ethylamino-propionylamino)-3-methyl-butyryl]-2,3-dihydro-1H-pyrrolo[2,3-b]pyridine-2-carboxylic acid phenylamide] | 234 nM | > 54.8 µM
CC(C)[C@H](NC(=O)[C@H](C)NCCO)C(=O)N1c2ncccc2C[C@H]1C(=O)Nc1ccccc1 [Example 89, (S)-1-{(S)-2-[(S)-2-(2-Hydroxy-ethylamino)-propionylamino]-3-methyl-butyryl}-2,3-dihydro-1H-pyrrolo[2,3-b]pyridine-2-carboxylic acid phenylamide] | 266 nM | > 54.8 µM
CC[C@H](NCCO)C(=O)N[C@H](C(=O)N1c2ncccc2C[C@H]1C(=O)Nc1ccccc1)C(C)C [Example 90, (S)-1-{(S)-2-[(S)-2-(2-Hydroxy-ethylamino)-butyrylamino]-3-methyl-butyryl}-2,3-dihydro-1H-pyrrolo[2,3-b]pyridine-2-carboxylic acid phenylamide] | 1610 nM | > 54.8 µM
CC(C)[C@H](NC(=O)[C@H](C)NCCS(C)(=O)=O)C(=O)N1c2ncccc2C[C@H]1C(=O)Nc1c(F)cccc1F [Example 92, (S)-1-{(S)-2-[(S)-2-(2-Methanesulfonyl-ethylamino)-propionylamino]-3-methyl-butyryl}-2,3-dihydro-1H-pyrrolo[2,3-b]pyridine-2-carboxylic acid (2,6-difluoro-phenyl)-amide] | 2570 nM | > 54.8 µM
CN[C@@H](C)C(=O)N[C@H](C(=O)N1c2ncccc2C[C@@H]1C(=O)Nc1c(F)cccc1F)C1CCOCC1 [Example 95, (R)-1-[(S)-2-((S)-2-Methylamino-propionylamino)-2-(tetrahydro-pyran-4-yl)-acetyl]-2,3-dihydro-1H-pyrrolo[2,3-b]pyridine-2-carboxylic acid (2,6-difluoro-phenyl)-amide] | 607 nM | > 54.8 µM
CN[C@@H](C)C(=O)N[C@@H](CCS(C)(=O)=O)C(=O)N1c2ncccc2C[C@@H]1C(=O)Nc1ccccc1 [Example 97, 1-[(S)-4-Methanesulfonyl-2-((S)-2-methylamino-propionylamino)-butyryl]-2,3-dihydro-1H-pyrrolo[2,3-b]pyridine-2-carboxylic acid phenylamide] | 3060 nM | > 54.8 µM

The next compounds have a lower IC50 [1] than those just listed; values first:

IC50 [1] | IC50 [2] | Compound
14.2 nM | > 54.8 µM | CC[C@H](NC)C(=O)N[C@H](C(=O)N1c2ncccc2C[C@H]1C(=O)Nc1c(F)cccc1F)C(C)C [Example 78, (S)-1-[(S)-3-Methyl-2-((S)-2-methylamino-butyrylamino)-butyryl]-2,3-dihydro-1H-pyrrolo[2,3-b]pyridine-2-carboxylic acid (2,6-difluoro-phenyl)-amide]
117 nM | > 54.8 µM | CN[C@@H](C)C(=O)N[C@H](C(=O)N1c2ncccc2C[C@H]1C(=O)Nc1ccccc1)C1CCCCC1 [Example 80, (S)-1-[(S)-2-Cyclohexyl-2-((S)-2-methylamino-propionylamino)-acetyl]-2,3-dihydro-1H-pyrrolo[2,3-b]pyridine-2-carboxylic acid phenylamide]
105 nM | > 54.8 µM | CC[C@H](NC)C(=O)N[C@H](C(=O)N1c2ncccc2C[C@H]1C(=O)Nc1ccccc1)C1CCCCC1 [Example 82, 1-[(S)-2-Cyclohexyl-2-((S)-2-methylamino-butyrylamino)-acetyl]-2,3-dihydro-1H-pyrrolo[2,3-b]pyridine-2-carboxylic acid phenylamide]
52.8 nM | > 54.8 µM | [2H]C([2H])([2H])N[C@@H](CC)C(=O)N[C@H](C(=O)N1c2ncccc2C[C@H]1C(=O)Nc1ccccc1)C1CCCCC1 [Example 83, 1-[(S)-2-Cyclohexyl-2-((S)-2-(d3-methyl)amino-butyrylamino)-acetyl]-2,3-dihydro-1H-pyrrolo[2,3-b]pyridine-2-carboxylic acid phenylamide]
69.1 nM | > 54.8 µM | CC[C@H](NC)C(=O)N[C@H](C(=O)N1c2ncccc2C[C@H]1C(=O)Nc1ccccc1)C(C)C [Example 85, (S)-1-[(S)-3-Methyl-2-((S)-2-methylamino-butyrylamino)-butyryl]-2,3-dihydro-1H-pyrrolo[2,3-b]pyridine-2-carboxylic acid phenylamide]
65.6 nM | > 54.8 µM | [2H]C([2H])([2H])N[C@@H](CC)C(=O)N[C@H](C(=O)N1c2ncccc2C[C@H]1C(=O)Nc1ccccc1)C(C)C [Example 86, (S)-1-[(S)-3-Methyl-2-((S)-2-(d3-methyl)amino-butyrylamino)-butyryl]-2,3-dihydro-1H-pyrrolo[2,3-b]pyridine-2-carboxylic acid phenylamide]
211 nM | > 54.8 µM | CCN[C@@H](CC)C(=O)N[C@H](C(=O)N1c2ncccc2C[C@H]1C(=O)Nc1ccccc1)C(C)C [Example 88, (S)-1-[(S)-2-((S)-2-Ethylamino-butyrylamino)-3-methyl-butyryl]-2,3-dihydro-1H-pyrrolo[2,3-b]pyridine-2-carboxylic acid phenylamide]
155 nM | > 54.8 µM | C[C@H](NCCO)C(=O)N[C@H](C(=O)N1c2ncccc2C[C@H]1C(=O)Nc1ccccc1)C1CCCCC1 [Example 91, (S)-1-{(S)-2-Cyclohexyl-2-[(S)-2-(2-hydroxy-ethylamino)-propionylamino]-acetyl}-2,3-dihydro-1H-pyrrolo[2,3-b]pyridine-2-carboxylic acid phenylamide]
9.79 nM | > 54.8 µM | CN[C@@H](C)C(=O)N[C@H](C(=O)N1c2ncccc2C[C@H]1C(=O)Nc1c(F)cccc1F)C1CCOCC1 [Example 94, (S)-1-[(S)-2-((S)-2-Methylamino-propionylamino)-2-(tetrahydro-pyran-4-yl)-acetyl]-2,3-dihydro-1H-pyrrolo[2,3-b]pyridine-2-carboxylic acid (2,6-difluoro-phenyl)-amide]
108 nM | > 54.8 µM | CN[C@@H](C)C(=O)N[C@@H](CCS(C)(=O)=O)C(=O)N1c2ncccc2C[C@H]1C(=O)Nc1ccccc1 [Example 96, 1-[(S)-4-Methanesulfonyl-2-((S)-2-methylamino-propionylamino)-butyryl]-2,3-dihydro-1H-pyrrolo[2,3-b]pyridine-2-carboxylic acid phenylamide]
17 nM | > 54.8 µM | CN[C@@H](C)C(=O)N[C@H](C(=O)N1c2ncccc2C(C)C1C(=O)Nc1c(F)cccc1F)C(C)C (stereo partly drawn) [Example 98, 3-Methyl-1-[(S)-3-methyl-2-((S)-2-methylamino-propionylamino)-butyryl]-2,3-dihydro-1H-pyrrolo[2,3-b]pyridine-2-carboxylic acid (2,6-difluoro-phenyl)-amide]
11.6 nM | > 54.8 µM | CN[C@@H](C)C(=O)N[C@H](C(=O)N1c2ncccc2C[C@H]1C(=O)Nc1c(C)cccc1F)C1CCOCC1 [Example 99, (S)-1-[(S)-2-((S)-2-Methylamino-propionylamino)-2-(tetrahydro-pyran-4-yl)-acetyl]-2,3-dihydro-1H-pyrrolo[2,3-b]pyridine-2-carboxylic acid (2-fluoro-6-methyl-phenyl)-amide]
